ChEMBL document CHEMBL1909046, “DrugMatrix in vitro pharmacology data”

How the values were obtained:
[1] = DRUGMATRIX: Glutamate, AMPA radioligand binding (ligand: [3H] AMPA); type: cell membranes, Rattus norvegicus, Wistar, Cerebral cortex, Membrane; conditions: Not Active = under 50% inhibition at 10 µM
[2] = biological target: T1, Nitric oxide synthase, inducible (Mus musculus, UniProt P29477); parameters: species or system Escherichia coli;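 further: inhibition of iNOS enzyme activity measured with L-arginine as substrate; in other assays of this panel Not Active means under 50% inhibition at 10 µM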
T1 sequence (P29477 whole entry): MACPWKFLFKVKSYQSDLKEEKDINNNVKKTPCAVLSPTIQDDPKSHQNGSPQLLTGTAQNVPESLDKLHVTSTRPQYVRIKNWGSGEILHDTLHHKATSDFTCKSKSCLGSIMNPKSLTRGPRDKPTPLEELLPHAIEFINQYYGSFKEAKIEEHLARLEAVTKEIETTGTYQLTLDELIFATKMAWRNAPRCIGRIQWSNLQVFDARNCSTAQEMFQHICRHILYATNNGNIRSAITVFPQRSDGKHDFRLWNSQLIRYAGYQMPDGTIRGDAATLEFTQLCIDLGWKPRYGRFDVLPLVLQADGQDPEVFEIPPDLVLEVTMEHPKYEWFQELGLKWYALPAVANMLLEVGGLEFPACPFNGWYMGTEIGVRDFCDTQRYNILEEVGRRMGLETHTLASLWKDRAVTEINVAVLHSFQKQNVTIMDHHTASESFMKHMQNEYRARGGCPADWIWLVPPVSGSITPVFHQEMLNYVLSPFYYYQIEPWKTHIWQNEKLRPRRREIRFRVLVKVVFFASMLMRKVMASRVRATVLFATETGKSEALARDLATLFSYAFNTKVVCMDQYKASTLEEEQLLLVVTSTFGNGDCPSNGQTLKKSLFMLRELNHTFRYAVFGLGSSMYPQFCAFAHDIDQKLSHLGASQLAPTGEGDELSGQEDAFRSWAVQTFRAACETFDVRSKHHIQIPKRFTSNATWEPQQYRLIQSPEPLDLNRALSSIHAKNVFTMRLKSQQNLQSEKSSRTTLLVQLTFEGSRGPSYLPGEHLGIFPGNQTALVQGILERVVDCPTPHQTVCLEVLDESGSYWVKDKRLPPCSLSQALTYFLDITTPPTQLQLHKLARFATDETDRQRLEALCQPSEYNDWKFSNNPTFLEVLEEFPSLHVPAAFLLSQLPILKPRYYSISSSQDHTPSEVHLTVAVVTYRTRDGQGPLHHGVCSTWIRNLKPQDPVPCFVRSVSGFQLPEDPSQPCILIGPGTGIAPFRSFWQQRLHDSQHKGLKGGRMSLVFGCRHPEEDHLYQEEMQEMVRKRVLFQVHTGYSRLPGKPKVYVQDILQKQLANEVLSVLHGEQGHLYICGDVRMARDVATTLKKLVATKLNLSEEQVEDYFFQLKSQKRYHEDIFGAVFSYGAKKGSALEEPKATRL

Leukotriene C4 synthase = biological target: T2, Leukotriene C4 synthase (Cavia porcellus, UniProt A6XA80); assay: biochemical; type: tissue-based, Lung;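 further: enzyme inhibition assay of leukotriene C4 synthase, using LTA4 as the substrate; in other assays of this panel Not Active means under 50% inhibition at 10 µM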
T2 sequence (A6XA80 whole entry): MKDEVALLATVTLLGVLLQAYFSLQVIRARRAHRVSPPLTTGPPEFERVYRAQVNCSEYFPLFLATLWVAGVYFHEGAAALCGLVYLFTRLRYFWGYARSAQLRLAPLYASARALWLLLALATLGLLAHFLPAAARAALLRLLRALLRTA

[3] = biological target: cGMP-specific 3',5'-cyclic phosphodiesterase (Homo sapiens, UniProt O76074); assay: DRUGMATRIX: Phosphodiesterase PDE5 enzyme inhibition (substrate: [3H]cGMP + cGMP); type: tissue-based, Platelet; conditions: platelet; Not Active = under 50% inhibition at 10 µM
Neutrophil elastase = biological target: T3, Neutrophil elastase (Homo sapiens, UniProt P08246); type: tissue-based;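 further: inhibition of neutrophil elastase enzyme activity, measured with a p-nitroanilide-linked peptide substrate; in other assays of this panel Not Active means under 50% inhibition at 10 µM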
T3 sequence (P08246 whole entry): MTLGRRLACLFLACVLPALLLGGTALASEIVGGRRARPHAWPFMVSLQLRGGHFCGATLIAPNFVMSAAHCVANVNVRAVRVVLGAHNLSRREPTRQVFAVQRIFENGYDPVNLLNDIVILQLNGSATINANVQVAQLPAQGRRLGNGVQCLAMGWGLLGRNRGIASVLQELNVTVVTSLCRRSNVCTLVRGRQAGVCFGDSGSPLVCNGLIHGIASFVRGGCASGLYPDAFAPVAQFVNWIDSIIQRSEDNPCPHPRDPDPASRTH

[4] = biological target: T4, Neuropeptide Y receptor type 1 (Homo sapiens, UniProt P25929); type: cell membranes, Membrane; conditions: sk-n-mc; further: in other assays of this panel Not Active means under 50% inhibition at 10 µM
T4 sequence (P25929 whole entry): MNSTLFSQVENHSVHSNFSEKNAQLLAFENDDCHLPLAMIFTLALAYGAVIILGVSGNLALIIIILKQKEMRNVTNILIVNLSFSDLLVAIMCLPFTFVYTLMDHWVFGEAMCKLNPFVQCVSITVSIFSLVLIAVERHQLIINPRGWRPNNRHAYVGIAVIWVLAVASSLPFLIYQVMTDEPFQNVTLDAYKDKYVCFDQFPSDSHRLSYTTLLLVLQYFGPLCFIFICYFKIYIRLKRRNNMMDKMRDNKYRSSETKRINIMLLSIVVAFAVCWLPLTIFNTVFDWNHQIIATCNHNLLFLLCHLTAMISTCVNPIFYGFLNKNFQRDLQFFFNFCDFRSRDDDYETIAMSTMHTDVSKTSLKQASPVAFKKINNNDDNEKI

Insulin receptor = Insulin receptor (Rattus norvegicus, UniProt P15127); type: cell membranes, Wistar, Liver, Membrane; further: in other assays of this panel Not Active means under 50% inhibition at 10 µM
Chain of Insulin receptor (P15127 27-759 limits assumed): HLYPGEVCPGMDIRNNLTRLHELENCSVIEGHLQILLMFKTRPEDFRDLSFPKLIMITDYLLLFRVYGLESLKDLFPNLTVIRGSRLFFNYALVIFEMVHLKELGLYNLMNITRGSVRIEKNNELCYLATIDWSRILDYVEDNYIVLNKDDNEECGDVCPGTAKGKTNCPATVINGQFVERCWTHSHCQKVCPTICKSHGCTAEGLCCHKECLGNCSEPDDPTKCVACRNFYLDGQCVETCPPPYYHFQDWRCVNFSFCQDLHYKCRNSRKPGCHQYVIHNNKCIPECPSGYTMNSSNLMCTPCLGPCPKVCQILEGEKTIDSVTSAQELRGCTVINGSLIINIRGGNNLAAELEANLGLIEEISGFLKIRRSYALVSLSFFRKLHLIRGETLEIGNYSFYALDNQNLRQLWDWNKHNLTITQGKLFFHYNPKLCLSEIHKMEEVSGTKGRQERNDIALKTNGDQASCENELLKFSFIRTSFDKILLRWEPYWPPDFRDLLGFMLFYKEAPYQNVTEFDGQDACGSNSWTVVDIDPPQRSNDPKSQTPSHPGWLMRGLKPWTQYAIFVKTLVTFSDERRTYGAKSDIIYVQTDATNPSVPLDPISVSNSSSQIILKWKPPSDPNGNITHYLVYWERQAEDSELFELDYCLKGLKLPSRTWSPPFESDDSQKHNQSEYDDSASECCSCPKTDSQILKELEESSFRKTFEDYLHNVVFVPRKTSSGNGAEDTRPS
Chain of Insulin receptor (P15127 764-1383 limits assumed): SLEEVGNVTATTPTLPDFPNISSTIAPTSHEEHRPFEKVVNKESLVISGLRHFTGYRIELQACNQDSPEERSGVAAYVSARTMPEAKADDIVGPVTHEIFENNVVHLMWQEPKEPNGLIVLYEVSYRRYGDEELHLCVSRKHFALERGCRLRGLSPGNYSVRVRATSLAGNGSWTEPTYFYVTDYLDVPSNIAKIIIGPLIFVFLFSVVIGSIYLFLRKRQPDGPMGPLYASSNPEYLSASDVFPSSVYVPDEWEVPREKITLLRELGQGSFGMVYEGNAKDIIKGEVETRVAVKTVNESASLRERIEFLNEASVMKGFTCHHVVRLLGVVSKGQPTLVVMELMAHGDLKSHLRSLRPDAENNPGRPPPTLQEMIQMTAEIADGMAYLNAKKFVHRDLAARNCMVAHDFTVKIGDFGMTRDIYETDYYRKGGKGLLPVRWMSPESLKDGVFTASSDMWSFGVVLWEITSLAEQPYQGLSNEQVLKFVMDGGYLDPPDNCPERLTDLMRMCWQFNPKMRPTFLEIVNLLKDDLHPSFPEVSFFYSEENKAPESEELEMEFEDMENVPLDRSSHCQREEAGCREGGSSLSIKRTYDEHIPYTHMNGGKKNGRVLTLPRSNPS

Estrogen receptor beta = Estrogen receptor beta (Homo sapiens, UniProt Q92731); conditions: sf9; further: in other assays of this panel Not Active means under 50% inhibition at 10 µM
Chain of Estrogen receptor beta (Q92731 whole entry): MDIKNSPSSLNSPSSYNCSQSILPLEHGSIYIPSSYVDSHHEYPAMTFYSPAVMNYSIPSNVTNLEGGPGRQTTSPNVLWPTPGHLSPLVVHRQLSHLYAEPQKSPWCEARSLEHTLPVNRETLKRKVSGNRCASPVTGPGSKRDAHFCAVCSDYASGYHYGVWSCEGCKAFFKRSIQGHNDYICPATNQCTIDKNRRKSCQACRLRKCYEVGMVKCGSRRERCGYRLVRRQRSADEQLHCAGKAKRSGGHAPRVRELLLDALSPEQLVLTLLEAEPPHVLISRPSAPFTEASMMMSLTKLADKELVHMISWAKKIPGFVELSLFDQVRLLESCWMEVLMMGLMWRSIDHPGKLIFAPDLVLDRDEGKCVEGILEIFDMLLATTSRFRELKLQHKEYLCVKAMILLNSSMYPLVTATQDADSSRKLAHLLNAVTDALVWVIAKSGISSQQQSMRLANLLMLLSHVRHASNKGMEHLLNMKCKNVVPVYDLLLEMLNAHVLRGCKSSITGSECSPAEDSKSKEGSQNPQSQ

[5] = biological target: C-C chemokine receptor type 2 (Homo sapiens, UniProt P41597); type: cell membranes, CHO-K1, Membrane; conditions: cho-k1; further: in other assays of this panel Not Active means under 50% inhibition at 10 µM
Chain of C-C chemokine receptor type 2 (P41597 whole entry): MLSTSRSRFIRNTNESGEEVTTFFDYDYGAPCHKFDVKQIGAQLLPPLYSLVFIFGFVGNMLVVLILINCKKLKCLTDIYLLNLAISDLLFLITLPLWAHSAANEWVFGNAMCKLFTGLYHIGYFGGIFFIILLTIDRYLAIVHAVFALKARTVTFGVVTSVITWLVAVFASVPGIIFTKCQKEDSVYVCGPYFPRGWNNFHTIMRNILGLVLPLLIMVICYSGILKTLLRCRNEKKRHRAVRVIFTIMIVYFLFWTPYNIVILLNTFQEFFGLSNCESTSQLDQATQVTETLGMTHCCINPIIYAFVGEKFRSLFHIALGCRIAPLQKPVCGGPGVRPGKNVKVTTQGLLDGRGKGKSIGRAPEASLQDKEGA

[6] = biological target: T5, C-C chemokine receptor type 4 (Homo sapiens, UniProt P51679); type: cell membranes, Membrane; conditions: chem-1; further: in other assays of this panel Not Active means under 50% inhibition at 10 µM
T5 sequence (P51679 whole entry): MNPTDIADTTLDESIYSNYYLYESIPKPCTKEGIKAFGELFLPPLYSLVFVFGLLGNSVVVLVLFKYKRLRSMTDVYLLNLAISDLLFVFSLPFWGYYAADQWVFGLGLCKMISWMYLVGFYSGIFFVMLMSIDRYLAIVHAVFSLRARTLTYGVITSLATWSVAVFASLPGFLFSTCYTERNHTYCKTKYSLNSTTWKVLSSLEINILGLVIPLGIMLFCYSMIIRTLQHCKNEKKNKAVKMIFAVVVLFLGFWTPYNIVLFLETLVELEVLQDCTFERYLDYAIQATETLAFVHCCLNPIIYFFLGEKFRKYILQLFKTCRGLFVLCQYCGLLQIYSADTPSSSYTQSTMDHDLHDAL

[7] = DRUGMATRIX: ATPase, Na+/K+ enzyme inhibition (substrate: ATP); type: tissue-based, Sus scrofa, Heart; conditions: Not Active = under 50% inhibition at 10 µM
[8] = DRUGMATRIX: Glutamate, Kainate radioligand binding (ligand: [3H] Kainic acid); type: cell membranes, Rattus norvegicus, Wistar, Brain, Membrane; conditions: Not Active = under 50% inhibition at 10 µM
[9] = DRUGMATRIX: Phorbol Ester radioligand binding (ligand: [3H] PDBu); type: cell membranes, Mus musculus, ICR, Brain, Membrane; conditions: Not Active = under 50% inhibition at 10 µM

Cn1cnc([N+](=O)[O-])c1Sc1ncnc2nc[nH]c12 [AZATHIOPRINE]
Not Active: IC50 [1] | Ki [1] | IC50 [2] | IC50 (Leukotriene C4 synthase) | IC50 [3] | IC50 (Neutrophil elastase) | IC50 [4] | IC50 (Insulin receptor) | IC50 (Estrogen receptor beta) | IC50 [5] | IC50 [6] | IC50 [7] | Ki [7] | IC50 [8] | Ki [8] | IC50 [9] | Ki [9]

CC(/C=C1\SC(=S)N(CC(=O)O)C1=O)=C\c1ccccc1
Not Active: IC50 [1] | Ki [1] | IC50 [2] | IC50 (Leukotriene C4 synthase) | IC50 [3] | IC50 (Neutrophil elastase) | IC50 [4] | IC50 (Insulin receptor) | IC50 (Estrogen receptor beta) | IC50 [5] | IC50 [6] | IC50 [7] | Ki [7] | IC50 [8] | Ki [8] | IC50 [9] | Ki [9]

CC1(C)[C@@H](O[C@H]2O[C@H](C(=O)O)[C@@H](O)[C@H](O)[C@H]2O[C@@H]2O[C@H](C(=O)O)[C@@H](O)[C@H](O)[C@H]2O)CC[C@]2(C)[C@H]3C(=O)C=C4[C@@H]5C[C@@](C)(C(=O)O)CC[C@]5(C)CC[C@@]4(C)[C@]3(C)CC[C@@H]12 [GLYCYRRHIZIN]
Not Active: IC50 [1] | Ki [1] | IC50 [2] | IC50 (Leukotriene C4 synthase) | IC50 [3] | IC50 (Neutrophil elastase) | IC50 [4] | IC50 (Insulin receptor) | IC50 (Estrogen receptor beta) | IC50 [5] | IC50 [6] | IC50 [7] | Ki [7] | IC50 [8] | Ki [8] | IC50 [9] | Ki [9]

NCC[C@H](O)C(=O)N[C@@H]1C[C@H](N)[C@@H](O[C@H]2O[C@H](CN)[C@@H](O)[C@H](O)[C@H]2O)[C@H](O)[C@H]1O[C@H]1O[C@H](CO)[C@@H](O)[C@H](N)[C@H]1O [AMIKACIN]
Not Active: IC50 [1] | Ki [1] | IC50 [2] | IC50 (Leukotriene C4 synthase) | IC50 [3] | IC50 (Neutrophil elastase) | IC50 [4] | IC50 (Insulin receptor) | IC50 (Estrogen receptor beta) | IC50 [5] | IC50 [6] | IC50 [7] | Ki [7] | IC50 [8] | Ki [8] | IC50 [9] | Ki [9]

Cc1[nH]cnc1CN1CCc2c(c3ccccc3n2C)C1=O [ALOSETRON]
Not Active: IC50 [1] | Ki [1] | IC50 [2] | IC50 (Leukotriene C4 synthase) | IC50 [3] | IC50 (Neutrophil elastase) | IC50 [4] | IC50 (Insulin receptor) | IC50 (Estrogen receptor beta) | IC50 [5] | IC50 [6] | IC50 [7] | Ki [7] | IC50 [8] | Ki [8] | IC50 [9] | Ki [9]

CN1C[C@H](C(=O)N[C@]2(C)O[C@@]3(O)[C@@H]4CCCN4C(=O)[C@H](Cc4ccccc4)N3C2=O)C=C2c3cccc4[nH]cc(c34)C[C@H]21 [ERGOTAMINE]
Not Active: IC50 [1] | Ki [1] | IC50 [2] | IC50 (Leukotriene C4 synthase) | IC50 [3] | IC50 (Neutrophil elastase) | IC50 [4] | IC50 (Insulin receptor) | IC50 (Estrogen receptor beta) | IC50 [5] | IC50 [6] | IC50 [7] | Ki [7] | IC50 [8] | Ki [8] | IC50 [9] | Ki [9]
